Counter-ions that a name gives are not always drawn. Like-named read-outs stand apart in the source and are kept apart here.
Columns and labels:
[1] = Compound cytotoxicity (CC50), XTT-based colorimetric assay; assay type: cell-based; details: human; uninfected MT2 cells, day 4, XTT assay
Summary of the method: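 Run under the antiviral-assay protocol but without virus. Viability was read on day 4 and CC50 values were derived from the readout.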

[2] = system: recombinant NL4-3 virus (nef section replaced with Renilla luciferase gene) in MT-2 cells; assay: whole plant or invertebrate; assay type: cell-based, HIV; details: NL43, luciferase activity in MT-2 cells infected 4-5 days with recombinant NL4-3 virus
Summary of the method: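 Nef-deleted NL4-3 reporter virus carrying Renilla luciferase was used to infect MT-2 cells in the presence of serial compound dilutions. After 4-5 days of infection, antiviral activity was quantified from luciferase activity using a live-cell substrate.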

SMILES | CC50 at 4 day [1] [µM] | EC50 ([2]; read-out: Activity) [µM] | EC50 ([2]; read-out: EC50) [µM]
Cc1ccccc1S(=O)(=O)NC(=O)N[C@@H](Cc1cc(F)cc(F)c1)c1ncccc1-c1ccc(CN2CCOCC2)s1 [Example 122, (S)-N-((2-(3,5-difluorophenyl)-1-(3-(5-(morpholinomethyl)thiophen-2-yl)pyridin-2-yl)ethyl)carbamoyl)-2-methylbenzenesulfonamide, 2 TFA] | > 100 | 0.1 to 1 | 
CCOc1ccc(-c2cccnc2[C@H](Cc2cc(F)cc(F)c2)NC(=O)NS(=O)(=O)c2ccccc2C)cc1F [Example 123, (S)-N-((2-(3,5-difluorophenyl)-1-(3-(4-ethoxy-3-fluorophenyl)pyridin-2-yl)ethyl)carbamoyl)-2-methylbenzenesulfonamide, TFA] | 55 | 0.1 to 1 | 0.6
COc1ncccc1-c1cccnc1[C@H](Cc1cc(F)cc(F)c1)NC(=O)NS(=O)(=O)c1ccccc1C [Example 124, (S)-N-((2-(3,5-difluorophenyl)-1-(2′-methoxy-[3,3′-bipyridin]-2-yl)ethyl)carbamoyl)-2-methylbenzenesulfonamide, TFA] | > 100 | > 1 | 
Cc1ccccc1S(=O)(=O)NC(=O)N[C@@H](Cc1cc(F)cc(F)c1)c1ncccc1-c1ccc(-c2cccs2)cc1 [Example 125, (S)-N-((2-(3,5-difluorophenyl)-1-(3-(4-(thiophen-2-yl)phenyl)pyridin-2-yl)ethyl)carbamoyl)-2-methylbenzenesulfonamide, TFA] | 38 | > 1 | 
Cc1ccccc1S(=O)(=O)NC(=O)N[C@@H](Cc1cc(F)cc(F)c1)c1ncccc1-c1ccnc(F)c1C [Example 126, (S)-N-((2-(3,5-difluorophenyl)-1-(2′-fluoro-3′-methyl-[3,4′-bipyridin]-2-yl)ethyl)carbamoyl)-2-methylbenzenesulfonamide, TFA] | > 33 | > 1 | 1.52
Cc1ccccc1S(=O)(=O)NC(=O)N[C@@H](Cc1cc(F)cc(F)c1)c1ncccc1-c1coc2ccccc12 [Example 127, (S)-N-((1-(3-(benzofuran-3-yl)pyridin-2-yl)-2-(3,5-difluorophenyl)ethyl)carbamoyl)-2-methylbenzenesulfonamide, TFA] | 72 | > 1 | 
Cc1ccccc1S(=O)(=O)NC(=O)N[C@@H](Cc1cc(F)cc(F)c1)c1ncccc1-c1ccc(C#N)cc1 [Example 128, (S)-N-((1-(3-(4-cyanophenyl)pyridin-2-yl)-2-(3,5-difluorophenyl)ethyl)carbamoyl)-2-methylbenzenesulfonamide, TFA] | 80 | > 1 | 
Cc1ccccc1S(=O)(=O)NC(=O)N[C@@H](Cc1cc(F)cc(F)c1)c1ncccc1-c1cccc(C(=O)OC(C)(C)C)c1 [Example 130, (S)-tert-butyl 3-(2-(2-(3,5-difluorophenyl)-1-(3-(o-tolylsulfonyl)ureido)ethyl)pyridin-3-yl)benzoate, TFA] | 53 | > 1 | 
Cc1ccccc1S(=O)(=O)NC(=O)N[C@@H](Cc1cc(F)cc(F)c1)c1ncccc1-c1ccc(F)c(C(=O)O)c1 [Example 131, (S)-5-(2-(2-(3,5-difluorophenyl)-1-(3-(o-tolylsulfonyl)ureido)ethyl)pyridin-3-yl)-2-fluorobenzoic Acid, TFA] | > 100 | > 1 | 
Cc1ccccc1S(=O)(=O)NC(=O)N[C@@H](Cc1cc(F)cc(F)c1)c1ncccc1-c1ccc(F)c2ccccc12 [Example 132, (S)-N-((2-(3,5-difluorophenyl)-1-(3-(4-fluoronaphthalen-1-yl)pyridin-2-yl)ethyl)carbamoyl)-2-methylbenzenesulfonamide, TFA] | 73 | > 1 | 4.81
Cc1cc(-c2cccnc2[C@H](Cc2cc(F)cc(F)c2)NC(=O)NS(=O)(=O)c2ccccc2C)c(C)s1 [Example 133, (S)-N-((2-(3,5-difluorophenyl)-1-(3-(2,5-dimethylthiophen-3-yl)pyridin-2-yl)ethyl)carbamoyl)-2-methylbenzenesulfonamide, TFA] | 71 | > 1 | 
COc1c(F)cc(F)cc1-c1cccnc1[C@H](Cc1cc(F)cc(F)c1)NC(=O)NS(=O)(=O)c1ccccc1C [Example 134] | > 50 | > 1 | 
